Results as given in patent publication US5972893A, “Method of treating hyperprolactinemia and prolactinomas” (Cedars-Sinai Medical Center, priority 1997, dated 1999).
Positions of bridges follow the written chain, without caps; N, C: chain ends. Non-standard residues stand in square brackets, D forms with d. Residues, ends and D or L forms follow the SMILES beside them.

Legend:
[1] = test system: cells derived from prolactin-secreting pituitary adenomas; assay: Reduction of prolactin secretion from prolactinoma cell cultures; type: cell-based, human; settings: for effect on prolactin production (in words) / suppression of prolactin release: large tumor 4 cell cultures; for effect on prolactin release (in words): tumor 1 adenomatous cell cultures, 10-100 nM; for effect on prolactin release (in words) / suppression of prolactin secretion: 3 hours; for response of cells from the four large male tumors (in words): tumors 1, 2, 3 and 4 (macroprolactinomas of male patients); for suppression of prolactin secretion: tumor 1 cell cultures
human SSTR-1 = human SSTR-1 (Homo sapiens, UniProt P30872); assay: Somatostatin receptor binding assay, hSSTR-1
human SSTR-1, sequence (P30872 whole entry): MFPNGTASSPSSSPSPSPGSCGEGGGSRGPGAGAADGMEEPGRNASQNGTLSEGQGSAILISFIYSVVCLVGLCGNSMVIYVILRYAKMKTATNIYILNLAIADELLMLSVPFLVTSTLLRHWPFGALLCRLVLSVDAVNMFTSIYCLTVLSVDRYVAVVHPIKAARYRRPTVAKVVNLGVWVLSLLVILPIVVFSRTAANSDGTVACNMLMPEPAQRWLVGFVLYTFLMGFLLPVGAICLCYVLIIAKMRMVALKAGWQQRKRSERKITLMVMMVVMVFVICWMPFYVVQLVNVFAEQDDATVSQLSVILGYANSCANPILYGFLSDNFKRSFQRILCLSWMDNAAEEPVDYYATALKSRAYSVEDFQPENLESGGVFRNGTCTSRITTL

human SSTR-3 = human SSTR-3 (Homo sapiens, UniProt P32745); assay: Somatostatin receptor binding assay, hSSTR-3
human SSTR-3, sequence (P32745 whole entry): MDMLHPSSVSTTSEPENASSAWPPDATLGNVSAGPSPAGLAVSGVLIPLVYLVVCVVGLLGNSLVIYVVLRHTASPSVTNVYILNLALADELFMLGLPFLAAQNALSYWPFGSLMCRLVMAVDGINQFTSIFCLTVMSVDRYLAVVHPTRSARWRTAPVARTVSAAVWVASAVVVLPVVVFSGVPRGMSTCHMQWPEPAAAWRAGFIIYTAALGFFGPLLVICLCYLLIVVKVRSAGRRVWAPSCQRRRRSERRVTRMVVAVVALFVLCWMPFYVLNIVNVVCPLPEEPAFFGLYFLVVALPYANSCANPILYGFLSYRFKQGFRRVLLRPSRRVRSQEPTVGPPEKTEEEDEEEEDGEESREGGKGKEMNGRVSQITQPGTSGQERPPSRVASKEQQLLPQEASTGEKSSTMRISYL

Compound | effect on prolactin release (in words) [1] | response of cells from the four large male tumors (in words) [1] | further results
CC[C@@H]1NC(=O)[C@H](CCCCN)NC(=O)[C@@H](Cc2c[nH]c3ccccc23)NC(=O)[C@H](Cc2ccc(O)cc2)NC(=O)[C@@H](NC(=O)[C@@H](Cc2ccccc2)NC(=O)CN2CCN(CCO)CC2)CSSC[C@@H](C(=O)N[C@H](C(N)=O)[C@@H](C)O)NC1=O [BIM-23190] | did not affect prolactin release | failed to respond | effect on prolactin production (in words) [1]: modestly stimulated prolactin production
CC(C)[C@@H]1NC(=O)[C@H](CCCCN)NC(=O)[C@@H](Cc2c[nH]c3ccccc23)NC(=O)[C@H](Cc2ccc(O)cc2)NC(=O)[C@@H](NC(=O)[C@H](N)Cc2ccc3ccccc3c2)CSSC[C@@H](C(=O)N[C@H](C(N)=O)[C@@H](C)O)NC1=O [Lanreotide] | did not affect prolactin release | failed to respond | Ki (human SSTR-1): 2410 nM; Ki (human SSTR-3): 97.9 nM
CC[C@@H]1NC(=O)[C@H](CCCCN)NC(=O)[C@@H](Cc2c[nH]c3ccccc23)NC(=O)[C@H](Cc2ccc(O)cc2)NC(=O)[C@@H](NC(=O)[C@H](N)Cc2ccccc2)CSSC[C@@H](C(=O)N[C@H](C(N)=O)[C@@H](C)O)NC1=O [BIM-23023] | did not affect prolactin release | – | –
C[C@@H](O)[C@@H]1NC(=O)[C@H](CCCCN)NC(=O)[C@@H](Cc2c[nH]c3ccccc23)NC(=O)[C@H](Cc2ccccc2)NC(=O)[C@@H](NC(=O)[C@H](N)Cc2ccccc2)CSSC[C@@H](C(=O)N[C@H](CO)[C@@H](C)O)NC1=O [Octreotide] | – | failed to respond | –
C[C@@H](O)[C@H](NC(=O)[C@H](Cc1ccccc1)NC(=O)[C@@H](NC(=O)[C@H](CCCCN)NC(=O)[C@@H](Cc1c[nH]c2ccccc12)NC(=O)[C@H](Cc1ccccc1)NC(=O)[C@H](Cc1ccccc1)NC(=O)[C@H](N)Cc1ccccc1)[C@@H](C)O)C(N)=O [BIM-23052, H-D-Phe-Phe-Phe-D-Trp-Lys-Thr-Phe-Thr-NH2] (H-[dF]FF[dW]KTFT-NH2) | – | suppression of prolactin secretion | suppression of prolactin release ([1]; p<0.05): more than 30%; suppression of prolactin secretion ([1]; 10 nM, p<0.05): 33%
C[C@@H](O)[C@@H]1NC(=O)[C@H](CCCCN)NC(=O)[C@@H](Cc2c[nH]c3ccccc23)NC(=O)[C@H](Cc2ccccc2)NC(=O)[C@H](Cc2ccccc2)NC(=O)[C@@H](N)CSSC[C@@H](C(N)=O)NC(=O)[C@H](Cc2ccccc2)NC1=O [BIM-23268, H-Cys-Phe-Phe-D-Trp-Lys-Thr-Phe-Cys-NH2] (H-CFF[dW]KTFC-NH2; disulfide 1-8) | – | suppression of prolactin secretion | suppression of prolactin ([1]; large tumor 3 cell cultures, 10 nM and 100 nM, dose dependent, p<0.05): up to 29%; suppression of prolactin release ([1]; p<0.05): more than 30%; suppression of prolactin secretion ([1]; 10 nM, p<0.05): 36%; inhibition of prolactin release versus controls ([1]; tumor 2 cell cultures, 10 nM, p<0.0005): 38%
CC[C@@H]1NC(=O)[C@H](CCCCN)NC(=O)[C@@H](Cc2c[nH]c3ccccc23)NC(=O)[C@H](Cc2ccc(O)cc2)NC(=O)[C@@H](NC(=O)[C@@H](Cc2ccccc2)NS(=O)(=O)CCN2CCN(CCO)CC2)CSSC[C@@H](C(=O)N[C@H](C(N)=O)[C@@H](C)O)NC1=O [BIM-23197] | did not affect prolactin release | failed to respond | effect on prolactin production (in words) [1]: modestly stimulated prolactin production
